Measured values as given in patent US7431088B2, “Methods of controlled acidization in a wellbore” (Halliburton Energy Services, Inc., priority 2006, dated 2008).
Structures can show the parent of a compound that is named as a salt.

Key:
[1] = for hydrolysis / reaction rate (comparison in words): deionized water, molar ratio of CaCO3
Protocol: In the following examples, various ester hydrolysis reactions were run in the presence of calcium carbonate (CaCO3) to simulate the consumption of filter cake material. The acid evolved in each reaction was measured per unit of time. The acid generated upon hydrolysis was rapidly consumed in a secondary reaction that produced carbon dioxide (CO2). The half-life was secured when half of the CaCO3 was consumed. That is, using PV=nRT, the amount of CaCO3 that would yield approximately 1 liter of CO2 was calculated to be about 4.47 grams. We doubled the amount of CaCO3 (8.94 grams) for the reactions and then calculated the half-life based on the yield of 1 liter of CO2. Unless otherwise specified, all half-life quotations are actually the time required for 4.47 grams of CaCO3 to be consumed.
The following general procedure was used in each of the examples. The closed system reactor shown in FIG. 1 was used to measure the amount of CO2 gas that evolved in each reaction. Water or brine was added to a boiling flask 10, which was heated to 100° C. […] Once the liquid was boiling, a weighed amount of ester was added to flask 10. The amount of ester employed was always in ratio to the water or to the make-up water used to formulate the brine except where commercially available brines were used. Following addition of the ester to the boiling liquid, a reflux condenser 12 was affixed to flask 10. The top of condenser 12 was fixed with an adapter 14 to an inlet tube 18 in a 2-hole rubber stopper 16. The inlet tube 18 was passed through stopper 16, providing a seal. An outlet tube 22 was run from the bottom of a flask 20 to a 1,000 mL graduated cylinder 24. The flask 20 was charged with XP-07 base oil, commercially available from Halliburton Energy Services, Inc. The outlet tube 22 served the purpose of discharging the oil into graduated cylinder 24. The hydrolysis reaction produced acid in flask 10 that reacted with the CaCO3 to produce CO2 gas. The gas displaced the oil in flask 20 into graduated cylinder 24. The rate of CO2 evolution thus could be monitored visually by reading of the amount of oil in graduated cylinder 24 per unit of time.
Solutions containing various esters of lactic acid and of glycerol (i.e., monoacetin, ethyl lactate, triacetin, tripropionin), butyl formate (a control), and BDF-325 diethyleneglycol diformate (a control) in neutral water were prepared and combined with a molar ratio of CaCO3. Hydrolysis reactions were then carried out using the resulting solutions at 100° C. The hydrolysis reactions were monitored, and the half-lives of the esters were compared. The volume of oil displaced by the CO2 gas is plotted as a function of time in FIG. 2. […] The butyl formate to CaCO3 molar ratio was doubled for comparison purposes.
Solutions containing 10 volume % monoacetin, diacetin, and triacetin in deionized water were prepared and combined with a molar ratio of CaCO3. Hydrolysis reactions were then carried out using the resulting solutions at 100° C. The hydrolysis reactions were monitored, and the half-lives of the esters were compared. The volume of oil displaced by the CO2 gas is plotted as a function of time in FIG. 3.

[2] = Solubility of ester in water; type: physicochemical

Compound | effect of doubling the ester to CaCO3 molar ratio on reaction rate [1] | hydrolysis / reaction rate (comparison in words) ([1]; 100° C.) | also measured
CCCCOC(=O)C(C)O (stereo not drawn) [Butyl lactate] | doubled its reaction rate | faster than that of the butyl formate | –
CC(=O)OCC(O)COC(C)=O [Diacetin] | – | very similar | –
CCOC(=O)C(C)O (stereo not drawn) [Ethyl Lactate] | – | – | hydrolysis performance in different aqueous solutions ([1]; 10 volume % in deionized water and various brines, 100° C.): performed consistently
CC(=O)OCC(O)CO (stereo not drawn) [Monoacetin] | – | – | half-life relative to target ([1]; buffer): within the targeted range
CC(=O)OCC(COC(C)=O)OC(C)=O [Triacetin] | – | very similar | –
CCCCOC=O [butyl formate, reference compound] | surprisingly similar | slow reaction rate | solubility in water [2]: relative insolubility
